Reference: US9382222B2, “Benzyl sulfonamide derivatives as RORc modulators” (Genentech, Inc., priority 2012, dated 2016)

These molecules were tested against T1, RORc ligand binding domain (Homo sapiens, UniProt P51449) (assay: In Vitro RORc Ligand Binding Assay). Conditions: displacement of 25-[3H]hydroxycholesterol (6 nM), 0.6 ug/mL RORc receptor, 3 h at 25° C.
T1 construct: host or cells: E. coli
T1 sequence (P51449 269-508 limits assumed): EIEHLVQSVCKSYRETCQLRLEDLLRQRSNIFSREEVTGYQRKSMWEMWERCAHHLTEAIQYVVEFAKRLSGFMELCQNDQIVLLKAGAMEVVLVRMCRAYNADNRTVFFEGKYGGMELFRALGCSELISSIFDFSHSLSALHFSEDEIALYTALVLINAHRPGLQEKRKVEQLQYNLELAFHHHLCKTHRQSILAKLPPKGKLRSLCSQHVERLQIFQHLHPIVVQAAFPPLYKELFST
Procedure: In Vitro RORc Ligand Binding Assay This assay was used to determine a compound's potency in inhibiting activity of RORc by determining, Kiapp, IC50, or percent inhibition values. […] On day of the assay, 100 uL of 0.05% CHAPS (in deionized H2O) was added to all wells of the GFB Unifilter plate and allowed soak for 1 h. A wash buffer of 50 mM HEPES (pH 7.4), 150 mM NaCl, and 5 mM MgCl2 was prepared to wash the filter plate. To prepare an assay buffer, BSA was added to the wash buffer to reach 0.01% and DTT was added to reach 1 mM. […] The 20× compound stocks were diluted in DMSO with Assay Buffer 4-fold to reach 5× the final test concentration in 25% DMSO (10 uL compound+30 uL Assay Buffer). Solutions were mixed by aspiration several times with a pipette set on 50 uL volume. For the assay, 10 uL of 5× compound stock solutions in 25% DMSO were added to the assay plate in duplicate. For two point screening, 10 mM stock compound solutions were diluted in DMSO to obtain 200 uM (20× the high test concentration) and then diluted 10-fold further to reach 20 uM (20× the low test concentration). The 20× stocks were diluted 4-fold with Assay Buffer (10 uL compound+30 uL Assay Buffer) to reach 5× the test concentrations (50 uM and 5 uM) and 10 uL were added to two assay plates for the duplicate wells. […] Add 20 uL to all wells to reach 6 nM final concentration in the assay. […] Stock receptor solution was diluted in assay buffer to obtain 1.5 ug/mL in Assay Buffer. 20 uL was added to all wells. For No Receptor samples, 20 uL Assay Buffer was substituted for receptor solution. […] Following addition to the wells, the plates were incubated 3 h at 25° C. Using a Packard Filtermate Harvester, the filter plate were washed 4 times following transfer of the incubated samples. Plates were dry-filtered completely (2 h at 50° C. or overnight at room temperature). 50 uL Microscint 0 was added to all wells and read on Topcount protocol Inverted. […] For NSB wells, 1 uM 25-hydroxycholesterol was also present.

First: CC(=O)N1CCN(c2ccc(S(=O)(=O)N(Cc3ccccc3C(F)(F)F)CC(F)(F)F)cc2)CC1 [Compound 80, 4-(4-Acetyl-piperazin-1-yl)-N-(2,2,2-trifluoro-ethyl)-N-(2-trifluoromethyl-benzyl)-benzenesulfonamide]
Second: CC(=O)N1CCN(c2ccc(S(=O)(=O)N(Cc3ccccc3C(F)(F)F)CC(C)(C)C)cc2)CC1 [Compound 88, 4-(4-Acetyl-piperazin-1-yl)-N-(2,2-dimethyl-propyl)-N-(2-trifluoromethyl-benzyl)-benzenesulfonamide]
The IC50 of the first is 2.2-fold higher: 87 nM for the first, 39 nM for the second. The second is the more potent here.

Going from CC(=O)N1CCN(c2ccc(S(=O)(=O)N(Cc3ccccc3C(F)(F)F)C(C)(C)C)cc2)CC1 [Compound 81, 4-(4-Acetyl-piperazin-1-yl)-N-tert-butyl-N-(2-trifluoromethyl-benzyl)-benzenesulfonamide] to CN(C)S(=O)(=O)N1CCN(c2ccc(S(=O)(=O)N(Cc3ccccc3C(F)(F)F)C(C)(C)C)cc2)CC1 [Compound 82, 4-{4-[tert-Butyl-(2-trifluoromethyl-benzyl)-sulfamoyl]-phenyl}-piperazine-1-sulfonic acid dimethylamide], the IC50 falls from 110 nM to 51 nM (2.2-fold). The second is the more potent here.

Compared with CC(C)CN(Cc1ccccc1C(F)(F)F)S(=O)(=O)c1ccc(N2CCC(C(N)=O)CC2)cc1 [Compound 83, 1-{4-[Isobutyl-(2-trifluoromethyl-benzyl)-sulfamoyl]-phenyl}-piperidine-4-carboxylic acid amide], CC(C)CN(Cc1ccccc1C(F)(F)F)S(=O)(=O)c1ccc(NC2CCN(S(C)(=O)=O)CC2)cc1 [Compound 84, N-Isobutyl-4-(1-methanesulfonyl-piperidin-4-ylamino)-N-(2-trifluoromethyl-benzyl)-benzenesulfonamide] is 4-fold lower in IC50: 24 nM for the first, 6 nM for the second. The second is the more potent here.

First: CN(C)S(=O)(=O)N1CCN(c2ccc(S(=O)(=O)N(Cc3ccccc3C(F)(F)F)CC(F)F)cc2)CC1 [Compound 85, 4-{4-[(2,2-Difluoro-ethyl)-(2-trifluoromethyl-benzyl)-sulfamoyl]-phenyl}-piperazine-1-sulfonic acid dimethylamide]
Second: CC(=O)N1CCN(c2ccc(S(=O)(=O)N(Cc3ccccc3C(F)(F)F)C3(C)CCC3)cc2)CC1 [Compound 86, 4-(4-Acetyl-piperazin-1-yl)-N-(1-methyl-cyclobutyl)-N-(2-trifluoromethyl-benzyl)-benzenesulfonamide]
The IC50 of the first is 1.7-fold higher: 116 nM for the first, 70 nM for the second. The second is the more potent here.

CS(=O)(=O)N1CCC(Oc2ccc(S(=O)(=O)N(Cc3ccccc3C(F)(F)F)C3CCC3)cc2)CC1 [Compound 89, N-Cyclobutyl-4-(1-methanesulfonyl-piperidin-4-yloxy)-N-(2-trifluoromethyl-benzyl)-benzenesulfonamide] and CC(C)CN(Cc1ccc(OC(F)(F)F)cc1)S(=O)(=O)c1ccc(NC2CCN(S(C)(=O)=O)CC2)cc1 [Compound 90, N-Isobutyl-4-(1-methanesulfonyl-piperidin-4-ylamino)-N-(4-trifluoromethoxy-benzyl)-benzenesulfonamide] are within 1.5-fold of each other in IC50: 9 nM for the first, 11 nM for the second.

Going from CC(C)CN(Cc1ccc(Cl)cc1)S(=O)(=O)c1ccc(NC2CCN(S(C)(=O)=O)CC2)cc1 [Compound 91, N-(4-Chloro-benzyl)-N-isobutyl-4-(1-methanesulfonyl-piperidin-4-ylamino)-benzenesulfonamide] to CC(C)CN([C@@H](CO)c1ccccc1)S(=O)(=O)c1ccc(N2CCN(S(C)(=O)=O)CC2)cc1 [Compound 92, N-((R)-2-Hydroxy-1-phenyl-ethyl)-N-isobutyl-4-(4-methanesulfonyl-piperazin-1-yl)-benzenesulfonamide], the IC50 rises from 10 nM to 3100 nM (310-fold).
